Structures can show the parent of a compound that is named as a salt.
Legend:
Type in all cases: functional
MCF7 = test: Cytotoxicity against Homo sapiens (human) MCF7 cells assessed as growth inhibition at 1 uM after 48 hr by SRB assay; settings: MCF7, 48 h, read-out: GI
OVCAR-5 = test: Cytotoxicity against Homo sapiens (human) OVCAR5 cells assessed as growth inhibition at 1 uM after 48 hr by SRB assay; settings: OVCAR-5, 48 h, read-out: GI
PC-3 = test: Cytotoxicity against Homo sapiens (human) PC3 cells assessed as growth inhibition at 1 uM after 48 hr by SRB assay; settings: PC-3, 48 h, read-out: GI
COLO 205 = test: Cytotoxicity against Homo sapiens (human) COLO205 cells assessed as growth inhibition at 1uM after 48 hr by SRB assay; settings: COLO 205, 48 h, read-out: GI

Row | Structure (SMILES) | inhibition of growth at 1 µM (MCF7) | inhibition of growth at 1 µM (OVCAR-5) | inhibition of growth at 1 µM (PC-3) | inhibition of growth at 1 µM (COLO 205)
1 | CC(=O)O[C@H]1C(=O)[C@@]2(C)[C@H]([C@H](OC(=O)c3ccccc3)[C@]3(O)C[C@H](OC(=O)[C@H](O)[C@@H](NC(=O)c4ccccc4)c4ccccc4)C(C)=C1C3(C)C)[C@]1(OC(C)=O)CO[C@@H]1C[C@@H]2O [PACLITAXEL] | 80% | 73% | 71% | 57%
2 | COc1cccc2c1C(=O)c1c(O)c3c(c(O)c1C2=O)C[C@@](O)(C(=O)CO)C[C@@H]3O[C@H]1C[C@H](N)[C@H](O)[C@H](C)O1 [DOXORUBICIN HYDROCHLORIDE] | 72% | 60% | 66% | 69%

Source: ChEMBL document CHEMBL3046665, “In vitro cytotoxicity, antimicrobial, and metal-chelating activity of triterpene saponins from tea seed grown in Kangra valley, India” (Med Chem Res, 2013)
